Measurements from patent US4939177A, “Use of avarol for the control of AIDS and ARC” (Merz + Co. GmbH & Co., priority 1986, dated 1990).

How the values were obtained:
[1] = system: L5178y mouse lymphoma cells; assay: L5178y cell growth; type: cell-based; details: Mus musculus, L5178Y, absence of Avarol
Procedure: mouse lymphoma cells were grown in roller tube cultures in Eagle's minimum essential medium, supplemented with 10% horse serum (Muller et al., Cancer Res. 39: 1102-1107; 1979 and Muller et al. Cancer Res. 45: 4822-4826; 1985). […] The cell growth was determined by cell count with a computer supported cell-counter (128-channel counter; Cytocomp, system Michaelis: BIOTRON-Medizinelektronik, Mainz; West Germany). The ED50 (±SD) was estimated by logit regression (L. Sachs, […], Springer-Verlag, Berlin 1984). The mathematical evaluation of the fractional inhibitory concentration indices (FIC indices) of Avarol/Avarone-DDC combinations was performed according to published equations and experimental conditions (Muller et al., Cancer Lett. 1: 127-132; 1976; and Phillips et al., Antimicrob. Agents Chemother. 9: 736-740, 1976). […] In this set of experiments, […] cells were incubated with Avarol in the absence or presence of the established SODase inhibitor DDC.

[2] = system: DTH to oxazolone in NMRI mice; assay: Contact allergy to oxazolone; type: in vivo, mouse; details: 30 mg/kg per os
Procedure: Allergic contact dermatitis against oxazolone was produced according to the method of Asherson and Ptak (Immunol. 15: 405-416; 1968) as well as those of Bure and Degrand (Agents and Actions 9: 534; 1979). Male NMRI mice (20-22 g; 10/group) were sensitized with 100 μl of a 2% oxazolone in acetone solution onto the shaved abdomen (day 0). Animals were treated with avarol (i.p.) daily from day -1 to +2 or from day +6 to +8; control group was treated with deoxymethasone (Casella-Hoechst) as a standard per os at a daily dose of 30 mg/kg for the same period of time as for avarol. Seven days after sensitization 10 μl of a 3% oxazolane (this concentration was previously found to give more reproducible results than the lower 2% concentration) solution were topically applied onto the inner side of one ear, whereas the other ear received only acetone. […] Treated groups were compared with controls using the U-test.

herpes simplex virus = details: in vitro, cultures of herpes simplex virus; cited from earlier work
[3] = system: mouse leukemia cells L5178-Y; details: in vitro and in vivo; cited from earlier work

## CCN(CC)C(=S)S [DDC, diethyldithiocarbamate, reference compound]
[1]; DDC 1.46 μM
  inhibition at 1.46 µM: 26%
[1]; DDC 1.71 μM
  inhibition at 1.71 µM: 38%

## C[C@@H]1C[C@H]2[C@@H]3CCC4=CC(=O)C=C[C@]4(C)[C@@]3(F)[C@@H](O)C[C@]2(C)[C@H]1C(=O)CO [Deoxymethasone]
[2]; both schedules
  influence on DTH reaction to oxazolone, in words: significant immunosuppressive influence
[2]; day +6 to +8, control 18.5±3.7
  24 hours increase in ear thickness: 10.9 ± 6.1 mg
[2]; day -1 to +2, control 22.3±5.6
  24 hours increase in ear thickness: 10.2 ± 6.0 mg

## CC1=CCC[C@H]2[C@](C)(CC3=CC(=O)C=CC3=O)[C@@H](C)CC[C@]12C [Avarone]
Herpes simplex virus
  virostatic action: certain virostatic action in vitro
[3]
  antileukemic action: antileukemic action
